Patent US10189853B2, “Conformationally restricted 4-substituted-2,6-dimethylfuro[2,3-d]pyrimidines as anti-tumor agents” (DUQUESNE UNIVERSITY OF THE HOLY SPIRIT, priority 2014, dated 2019)

What was measured:
[1] = system: cellular microtubules in A-10 cells; assay: Microtubule depolymerization, indirect immunofluorescence; assay type: cell-based; details: for EC50: Rattus norvegicus, A10, A-10 cells, 18 h, read-out: EC50 for MT depolymerization in A-10 cells; for effect on cellular microtubules: in words
Method: Evaluation of microtubule inhibition was performed using previously described methods.^22 Indirect immunofluorescence was used to evaluate the effects of the compounds on cellular microtubules as described previously.^38 Briefly, A-10 cells were treated for 18 h with vehicle (DMSO) or a compound, and microtubule effects were evaluated microscopically using β-tubulin antibody. The EC50 was calculated from 3 independent experiments and expressed as the mean±SD.

[2] = system: chicken embryo chorioallantoic membrane; assay: Chorioallantoic membrane (CAM) assay of angiogenesis; details: Gallus gallus, 48 h, read-out: CAM angiogenesis inhibition
[3] = molecular target: PDGFR-β (Homo sapiens (Human), UniProt P09619); assay: PDGFR-β kinase inhibition, phosphotyrosine ELISA cytoblot; assay type: cell-based; details: SH-SY5Y cells, phosphotyrosine ELISA
Sequence of PDGFR-β (P09619 33-1106): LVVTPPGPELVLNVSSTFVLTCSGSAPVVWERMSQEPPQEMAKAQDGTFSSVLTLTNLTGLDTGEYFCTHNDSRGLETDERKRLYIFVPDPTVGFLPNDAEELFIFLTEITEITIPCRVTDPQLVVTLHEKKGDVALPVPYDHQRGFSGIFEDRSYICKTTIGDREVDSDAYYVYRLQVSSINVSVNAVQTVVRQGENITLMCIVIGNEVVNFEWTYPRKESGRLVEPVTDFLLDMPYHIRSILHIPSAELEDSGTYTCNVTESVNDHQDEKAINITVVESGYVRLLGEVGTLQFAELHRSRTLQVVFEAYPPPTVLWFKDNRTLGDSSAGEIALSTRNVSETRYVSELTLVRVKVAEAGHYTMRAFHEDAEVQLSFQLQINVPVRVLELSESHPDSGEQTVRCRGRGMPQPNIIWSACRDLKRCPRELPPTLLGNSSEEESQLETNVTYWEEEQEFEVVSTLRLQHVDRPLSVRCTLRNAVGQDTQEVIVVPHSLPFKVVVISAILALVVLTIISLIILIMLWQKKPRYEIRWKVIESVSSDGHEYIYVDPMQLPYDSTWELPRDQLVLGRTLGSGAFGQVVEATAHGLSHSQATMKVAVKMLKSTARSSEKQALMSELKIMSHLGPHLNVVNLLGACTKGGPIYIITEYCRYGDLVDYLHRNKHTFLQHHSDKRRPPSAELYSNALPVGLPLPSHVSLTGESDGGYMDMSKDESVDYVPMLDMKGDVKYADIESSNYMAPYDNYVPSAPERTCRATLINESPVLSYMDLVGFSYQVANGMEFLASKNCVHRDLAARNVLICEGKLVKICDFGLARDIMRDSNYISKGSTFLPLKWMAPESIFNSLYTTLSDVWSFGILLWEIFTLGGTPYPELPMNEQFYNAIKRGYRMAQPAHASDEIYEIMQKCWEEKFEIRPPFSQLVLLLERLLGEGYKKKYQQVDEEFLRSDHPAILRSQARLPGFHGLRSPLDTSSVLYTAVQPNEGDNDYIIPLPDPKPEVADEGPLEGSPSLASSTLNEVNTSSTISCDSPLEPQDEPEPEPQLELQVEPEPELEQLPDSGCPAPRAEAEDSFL
Method: (§1) Cells used were tumor cell lines naturally expressing high levels of EGFR (A431), VEGFR-2 (U251), and PDGFR-β (SH-SYSY). […] The reaction was stopped and cells were permeabilized by quickly removing the media from the cells and adding ice-cold Tris-buffered saline (TBS) containing 0.05% Triton X-100, protease inhibitor cocktail and tyrosine phosphatase inhibitor cocktail. The TBS solution was then removed and cells fixed to the plate for 30 min at 60° C. and further incubation in 70% ethanol for an additional 30 min. Cells were further exposed to block (TBS with 1% BSA) for 1 h, washed, and then a horseradish peroxidase (HRP)-conjugated phosphotyrosine (PY) antibody was added overnight.

[4] = system: A431 cancer cells; assay: A431 cytotoxicity (cell proliferation); assay type: cell-based, human; details: Homo sapiens, A-431
[5] = molecular target: VEGFR-2 (Homo sapiens (Human), UniProt P35968); assay: VEGFR-2 kinase inhibition, phosphotyrosine ELISA cytoblot; assay type: cell-based; details: U251 cells, phosphotyrosine ELISA
Sequence of VEGFR-2 (P35968 20-1356): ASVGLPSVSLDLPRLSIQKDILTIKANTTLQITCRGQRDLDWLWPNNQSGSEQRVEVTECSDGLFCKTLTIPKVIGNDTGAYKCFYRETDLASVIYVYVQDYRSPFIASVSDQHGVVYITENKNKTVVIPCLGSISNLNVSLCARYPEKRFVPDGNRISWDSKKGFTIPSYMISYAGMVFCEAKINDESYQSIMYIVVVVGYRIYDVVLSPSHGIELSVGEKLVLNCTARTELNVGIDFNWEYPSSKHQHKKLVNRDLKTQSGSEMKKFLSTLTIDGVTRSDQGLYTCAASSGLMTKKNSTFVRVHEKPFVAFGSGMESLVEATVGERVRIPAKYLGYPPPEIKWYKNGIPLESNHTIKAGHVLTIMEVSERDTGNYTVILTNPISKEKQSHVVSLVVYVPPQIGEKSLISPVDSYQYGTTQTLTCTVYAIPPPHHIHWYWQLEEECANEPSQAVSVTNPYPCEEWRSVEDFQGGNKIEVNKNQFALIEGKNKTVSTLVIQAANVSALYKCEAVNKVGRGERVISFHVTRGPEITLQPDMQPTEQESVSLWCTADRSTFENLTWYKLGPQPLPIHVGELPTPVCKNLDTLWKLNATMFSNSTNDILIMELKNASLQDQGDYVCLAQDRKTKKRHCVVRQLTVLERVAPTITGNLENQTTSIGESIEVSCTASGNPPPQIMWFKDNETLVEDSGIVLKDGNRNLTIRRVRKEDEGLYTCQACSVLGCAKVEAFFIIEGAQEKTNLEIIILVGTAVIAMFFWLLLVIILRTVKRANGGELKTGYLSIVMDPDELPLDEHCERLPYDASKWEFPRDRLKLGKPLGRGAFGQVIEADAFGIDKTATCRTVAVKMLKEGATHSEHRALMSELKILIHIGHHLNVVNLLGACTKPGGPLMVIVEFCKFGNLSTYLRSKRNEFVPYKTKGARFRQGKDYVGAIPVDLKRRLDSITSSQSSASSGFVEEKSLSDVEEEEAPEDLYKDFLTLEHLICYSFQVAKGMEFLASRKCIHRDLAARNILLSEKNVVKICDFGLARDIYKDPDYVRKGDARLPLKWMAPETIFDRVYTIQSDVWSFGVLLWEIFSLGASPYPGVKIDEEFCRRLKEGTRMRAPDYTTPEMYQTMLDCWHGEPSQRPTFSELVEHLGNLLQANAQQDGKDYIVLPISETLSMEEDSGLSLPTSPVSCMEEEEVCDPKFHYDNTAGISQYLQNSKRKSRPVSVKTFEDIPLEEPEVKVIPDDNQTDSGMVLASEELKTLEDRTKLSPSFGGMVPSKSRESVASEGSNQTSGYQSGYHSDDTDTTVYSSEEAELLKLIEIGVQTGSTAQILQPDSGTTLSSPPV
Method: as §1

[6] = molecular target: EGFR (Homo sapiens (Human), UniProt P00533); assay: EGFR kinase inhibition, phosphotyrosine ELISA cytoblot; assay type: cell-based; details: A431 cells
Sequence of EGFR (P00533 25-1210): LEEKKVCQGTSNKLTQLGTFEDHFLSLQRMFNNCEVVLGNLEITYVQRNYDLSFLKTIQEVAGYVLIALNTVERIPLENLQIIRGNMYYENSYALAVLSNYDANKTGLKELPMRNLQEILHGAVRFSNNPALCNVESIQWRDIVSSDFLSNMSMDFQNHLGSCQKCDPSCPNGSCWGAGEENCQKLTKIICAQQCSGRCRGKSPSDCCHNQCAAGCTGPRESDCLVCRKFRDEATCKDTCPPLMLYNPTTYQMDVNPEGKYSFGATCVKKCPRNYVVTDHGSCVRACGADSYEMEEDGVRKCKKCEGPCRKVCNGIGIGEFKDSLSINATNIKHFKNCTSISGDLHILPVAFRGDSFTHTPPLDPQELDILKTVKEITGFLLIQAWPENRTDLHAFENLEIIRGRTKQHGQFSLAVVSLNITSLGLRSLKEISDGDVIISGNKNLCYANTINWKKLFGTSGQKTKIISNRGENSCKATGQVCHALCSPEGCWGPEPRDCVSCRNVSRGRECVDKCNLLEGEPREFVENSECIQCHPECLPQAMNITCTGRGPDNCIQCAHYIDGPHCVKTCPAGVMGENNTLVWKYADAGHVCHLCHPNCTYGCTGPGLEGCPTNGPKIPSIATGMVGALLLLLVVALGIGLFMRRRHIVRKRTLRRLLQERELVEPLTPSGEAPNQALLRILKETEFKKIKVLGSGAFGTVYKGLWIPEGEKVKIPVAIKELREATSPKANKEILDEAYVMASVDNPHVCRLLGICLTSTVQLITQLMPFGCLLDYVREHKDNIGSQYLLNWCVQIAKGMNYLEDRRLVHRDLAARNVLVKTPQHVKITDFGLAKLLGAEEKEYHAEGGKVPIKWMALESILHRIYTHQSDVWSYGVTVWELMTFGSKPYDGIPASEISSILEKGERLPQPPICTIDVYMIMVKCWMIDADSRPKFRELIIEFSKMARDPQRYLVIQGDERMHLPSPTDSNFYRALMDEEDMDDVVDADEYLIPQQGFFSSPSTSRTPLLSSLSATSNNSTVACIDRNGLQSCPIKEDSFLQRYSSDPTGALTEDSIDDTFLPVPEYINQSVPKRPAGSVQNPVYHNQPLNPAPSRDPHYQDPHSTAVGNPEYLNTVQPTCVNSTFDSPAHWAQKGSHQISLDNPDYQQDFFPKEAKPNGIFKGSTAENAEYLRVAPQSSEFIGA
Method: as §1

COc1cc(N(C)c2nc(C)nc3oc(C)cc23)cc(OC)c1OC [Compound 4, N,2,6-trimethyl-N-(3,4,5-trimethoxyphenyl)furo[2,3-d]pyrimidin-4-amine]
EC50 [1]: > 10000 nM | IC50 [2]: > 300000 nM | IC50 [3]: 166 ± 20.2 nM | IC50 [4]: > 300 nM

CCOc1ccc(N(C)c2nc(C)nc3oc(C)cc23)cc1 [Compound 11, N-(4-ethoxyphenyl)-N,2,6-trimethylfuro[2,3-d]pyrimidin-4-amine]
EC50 [1]: > 10000 nM | IC50 [2]: 50100 ± 8200 nM | IC50 [4]: 11.6 ± 2.1 nM

COc1ccc2c(ccn2-c2nc(C)nc3oc(C)cc23)c1 [Compound 9, 4-(5-methoxy-1H-indol-1-yl)-2,6-dimethylfuro[2,3-d]pyrimidine]
EC50 [1]: > 10000 nM | IC50 [2]: > 300000 nM | IC50 [4]: > 300 nM

Cc1nc(N(C)c2ccc3c(c2)OCO3)c2cc(C)oc2n1 [Compound 5, N-1,3-benzodioxol-5-yl-N,2,6-trimethylfuro[2,3-d]pyrimidin-4-amine]
EC50 [1]: > 10000 nM | IC50 [3]: 50.1 ± 7.8 nM | IC50 [5]: 19.9 ± 2.1 nM | IC50 [6]: 298 ± 38.1 nM | IC50 [4]: 48.9 ± 5.1 nM

COc1ccc2c(c1)CCN2c1nc(C)nc2oc(C)cc12 [Compound 8, 4-(5-methoxyindolin-1-yl)-2,6-dimethylfuro[2,3-d]pyrimidine]
EC50 [1]: > 10000 nM | effect on cellular microtubules [1]: no effect on cellular microtubules | IC50 [3]: 73.2 ± 4.9 nM | IC50 [5]: 20.9 ± 3.7 nM | IC50 [6]: 103 ± 18.2 nM | IC50 [4]: 42.2 ± 5 nM

COc1ccc(N(C)c2nc(C)nc3oc(C)cc23)cc1OC [Compound 3, N-(3,4-dimethoxyphenyl)-N,2,6-trimethylfuro[2,3-d]pyrimidin-4-amine]
effect on cellular microtubules [1]: dose-dependent loss of cellular microtubules | IC50 [3]: 66.1 ± 8.1 nM | IC50 [5]: 18.6 ± 3 nM | IC50 [6]: 90.3 ± 10.2 nM | IC50 [4]: 9.7 ± 1.2 nM
